Reference: ChEMBL document CHEMBL4190265, “Structural optimization elaborates novel potent Akt inhibitors with promising anticancer activity” (Eur J Med Chem, 2017)
Blank lines part the entries; values can stand above or below the compound they belong to.

Columns and labels:
[1] = biological target: RAC-alpha serine/threonine-protein kinase (Homo sapiens, UniProt P31749); test: Inhibition of AKT1 (unknown origin) using biotinylated-STK as substrate after 45 mins by HTRF assay
JVM-2 = test: Antiproliferative activity against human JVM2 cells after 72 hrs by CellTiter Glo assay; assay type: functional, cell-based; details: JVM-2, 72 h
Maver1 = test: Antiproliferative activity against human Maver1 cells after 72 hrs by CellTiter Glo assay; assay type: functional, cell-based; details: Maver1, 72 h
[2] = Antiproliferative activity against human SP49 cells after 72 hrs by CellTiter Glo assay; assay type: functional, cell-based
Z-138 = test: Antiproliferative activity against human Z138 cells after 72 hrs by CellTiter Glo assay; assay type: functional, cell-based; details: Z-138, 72 h
[3] = Antiproliferative activity against human Mino cells after 72 hrs by CellTiter Glo assay; assay type: functional, cell-based
JeKo-1 [4] = test: Antiproliferative activity against human JeKo1 cells after 72 hrs by CellTiter Glo assay; assay type: functional, cell-based; details: JeKo-1, 72 h
JeKo-1 [5] = test: Induction of apoptosis in human JeKo1 cells assessed as viable cells at 1 uM after 72 hrs by Annexin V-FITC/propidium iodide double staining based flow cytometry (reference value: 91.9%); assay type: functional; details: JeKo-1, 72 h, read-out: Activity
JeKo-1 [6] = test: Induction of apoptosis in human JeKo1 cells assessed as viable cells at 0.5 uM after 48 hrs by Annexin V-FITC/propidium iodide double staining based flow cytometry (reference value: 91.1%); assay type: functional; details: JeKo-1, 48 h, read-out: Activity
JeKo-1 [7] = test: Induction of apoptosis in human JeKo1 cells assessed as early apoptotic cells at 0.5 uM after 48 hrs by Annexin V-FITC/propidium iodide double staining based flow cytometry (reference value: 6.18%); assay type: functional
JeKo-1 [8] = test: Induction of apoptosis in human JeKo1 cells assessed as late apoptotic cells at 0.5 uM after 48 hrs by Annexin V-FITC/propidium iodide double staining based flow cytometry (reference value: 1.9%); assay type: functional
JeKo-1 [9] = test: Induction of apoptosis in human JeKo1 cells assessed as necrotic cells at 0.5 uM after 48 hrs by Annexin V-FITC/propidium iodide double staining based flow cytometry (reference value: 0.81%); assay type: functional
JeKo-1 [10] = test: Induction of apoptosis in human JeKo1 cells assessed as viable cells at 1 uM after 48 hrs by Annexin V-FITC/propidium iodide double staining based flow cytometry (reference value: 91.1%); assay type: functional; details: JeKo-1, 48 h, read-out: Activity
JeKo-1 [11] = test: Induction of apoptosis in human JeKo1 cells assessed as early apoptotic cells at 1 uM after 48 hrs by Annexin V-FITC/propidium iodide double staining based flow cytometry (reference value: 6.18%); assay type: functional
JeKo-1 [12] = test: Induction of apoptosis in human JeKo1 cells assessed as late apoptotic cells at 1 uM after 48 hrs by Annexin V-FITC/propidium iodide double staining based flow cytometry (reference value: 1.9%); assay type: functional
JeKo-1 [13] = test: Induction of apoptosis in human JeKo1 cells assessed as necrotic cells at 1 uM after 48 hrs by Annexin V-FITC/propidium iodide double staining based flow cytometry (reference value: 0.81%); assay type: functional
JeKo-1 [14] = test: Induction of apoptosis in human JeKo1 cells assessed as viable cells at 5 uM after 48 hrs by Annexin V-FITC/propidium iodide double staining based flow cytometry (reference value: 91.1%); assay type: functional; details: JeKo-1, 48 h, read-out: Activity
JeKo-1 [15] = test: Induction of apoptosis in human JeKo1 cells assessed as early apoptotic cells at 5 uM after 48 hrs by Annexin V-FITC/propidium iodide double staining based flow cytometry (reference value: 6.18%); assay type: functional
JeKo-1 [16] = test: Induction of apoptosis in human JeKo1 cells assessed as late apoptotic cells at 5 uM after 48 hrs by Annexin V-FITC/propidium iodide double staining based flow cytometry (reference value: 1.9%); assay type: functional
JeKo-1 [17] = test: Induction of apoptosis in human JeKo1 cells assessed as necrotic cells at 5 uM after 48 hrs by Annexin V-FITC/propidium iodide double staining based flow cytometry (reference value: 0.81%); assay type: functional
JeKo-1 [18] = test: Induction of apoptosis in human JeKo1 cells assessed as viable cells at 1 uM after 24 hrs by Annexin V-FITC/propidium iodide double staining based flow cytometry (reference value: 91.9%); assay type: functional; details: JeKo-1, 24 h, read-out: Activity
JeKo-1 [19] = test: Induction of apoptosis in human JeKo1 cells assessed as early apoptotic cells at 1 uM after 24 hrs by Annexin V-FITC/propidium iodide double staining based flow cytometry (reference value: 5.42%); assay type: functional
JeKo-1 [20] = test: Induction of apoptosis in human JeKo1 cells assessed as late apoptotic cells at 1 uM after 24 hrs by Annexin V-FITC/propidium iodide double staining based flow cytometry (reference value: 2.06%); assay type: functional
JeKo-1 [21] = test: Induction of apoptosis in human JeKo1 cells assessed as necrotic cells at 1 uM after 24 hrs by Annexin V-FITC/propidium iodide double staining based flow cytometry (reference value: 0.62%); assay type: functional
JeKo-1 [22] = test: Induction of apoptosis in human JeKo1 cells assessed as viable cells at 1 uM after 48 hrs by Annexin V-FITC/propidium iodide double staining based flow cytometry (reference value: 91.9%); assay type: functional; details: JeKo-1, 48 h, read-out: Activity
JeKo-1 [23] = test: Induction of apoptosis in human JeKo1 cells assessed as early apoptotic cells at 1 uM after 48 hrs by Annexin V-FITC/propidium iodide double staining based flow cytometry (reference value: 5.42%); assay type: functional
JeKo-1 [24] = test: Induction of apoptosis in human JeKo1 cells assessed as late apoptotic cells at 1 uM after 48 hrs by Annexin V-FITC/propidium iodide double staining based flow cytometry (reference value: 2.06%); assay type: functional
JeKo-1 [25] = test: Induction of apoptosis in human JeKo1 cells assessed as necrotic cells at 1 uM after 48 hrs by Annexin V-FITC/propidium iodide double staining based flow cytometry (reference value: 0.62%); assay type: functional
JeKo-1 [26] = test: Induction of apoptosis in human JeKo1 cells assessed as early apoptotic cells at 1 uM after 72 hrs by Annexin V-FITC/propidium iodide double staining based flow cytometry (reference value: 5.42%); assay type: functional
JeKo-1 [27] = test: Induction of apoptosis in human JeKo1 cells assessed as late apoptotic cells at 1 uM after 72 hrs by Annexin V-FITC/propidium iodide double staining based flow cytometry (reference value: 2.06%); assay type: functional
JeKo-1 [28] = test: Induction of apoptosis in human JeKo1 cells assessed as necrotic cells at 1 uM after 72 hrs by Annexin V-FITC/propidium iodide double staining based flow cytometry (reference value: 0.62%); assay type: functional
JeKo-1 [29] = test: Cell cycle arrest in human JeKo1 cells assessed as accumulation at G0/G1 phase at 0.5 uM after 24 hrs by propidium iodide staining based flow cytometry (reference value: 44.8%); assay type: functional
JeKo-1 [30] = test: Cell cycle arrest in human JeKo1 cells assessed as accumulation at S phase at 0.5 uM after 24 hrs by propidium iodide staining based flow cytometry (reference value: 36.8%); assay type: functional
JeKo-1 [31] = test: Cell cycle arrest in human JeKo1 cells assessed as accumulation at G2/M phase at 0.5 uM after 24 hrs by propidium iodide staining based flow cytometry (reference value: 18.4%); assay type: functional
JeKo-1 [32] = test: Cell cycle arrest in human JeKo1 cells assessed as accumulation at G0/G1 phase at 1 uM after 24 hrs by propidium iodide staining based flow cytometry (reference value: 44.8%); assay type: functional
JeKo-1 [33] = test: Cell cycle arrest in human JeKo1 cells assessed as accumulation at S phase at 1 uM after 24 hrs by propidium iodide staining based flow cytometry (reference value: 36.8%); assay type: functional
JeKo-1 [34] = test: Cell cycle arrest in human JeKo1 cells assessed as accumulation at G2/M phase at 1 uM after 24 hrs by propidium iodide staining based flow cytometry (reference value: 18.4%); assay type: functional

Chain of RAC-alpha serine/threonine-protein kinase (P31749 whole entry): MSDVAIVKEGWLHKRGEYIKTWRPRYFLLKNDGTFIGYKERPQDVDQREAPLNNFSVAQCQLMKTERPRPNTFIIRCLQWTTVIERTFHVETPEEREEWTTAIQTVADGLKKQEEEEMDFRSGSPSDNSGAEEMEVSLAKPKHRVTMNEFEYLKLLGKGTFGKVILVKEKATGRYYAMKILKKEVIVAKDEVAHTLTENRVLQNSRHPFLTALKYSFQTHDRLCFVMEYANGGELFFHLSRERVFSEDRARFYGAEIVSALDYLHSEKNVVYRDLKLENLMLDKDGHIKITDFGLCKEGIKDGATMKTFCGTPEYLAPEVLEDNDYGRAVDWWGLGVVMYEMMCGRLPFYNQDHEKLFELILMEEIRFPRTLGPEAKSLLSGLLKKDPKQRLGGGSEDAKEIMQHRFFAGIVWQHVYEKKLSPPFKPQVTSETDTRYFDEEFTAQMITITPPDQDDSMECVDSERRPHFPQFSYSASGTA

SMILES: CC(C)(C)c1ccc(C2(C(=O)N3CCN(c4ncnc5[nH]ccc45)CC3)CCNCC2)cc1
IC50 [1]: > 0.04 µM

SMILES: O=C(N1CCN(c2ncnc3[nH]ccc23)CC1)C1(c2ccc(Br)cc2)CCNCC1
IC50 [1]: 0.0271 µM

IC50 [1]: 0.018 µM
SMILES: O=C(Cc1ccc(Cl)cc1)N1CCN(c2ncnc3[nH]cc(Br)c23)CC1
IC50 (JVM-2): 9.9 µM | IC50 (Maver1): 18.5 µM | IC50 [2]: 7.8 µM | IC50 (Z-138): 6.8 µM | IC50 [3]: 18.1 µM | IC50 (JeKo-1 [4]): 8.7 µM

SMILES: COc1ccc(C2(C(=O)N3CCN(c4ncnc5[nH]ccc45)CC3)CCNCC2)cc1
IC50 [1]: 0.0356 µM

SMILES: CCn1c(-c2nonc2N)nc2c(C#CC(C)(C)O)ncc(OC[C@H]3CCCNC3)c21 [GSK-690693]
IC50 (JVM-2): 1.6 µM | IC50 (Maver1): 5.1 µM | IC50 [2]: 4.8 µM | IC50 (Z-138): 3.1 µM | IC50 [3]: 20.8 µM | IC50 (JeKo-1 [4]): 3 µM

SMILES: O=C(N1CCN(c2ncnc3[nH]ccc23)CC1)C1(c2ccc(Cl)c(Cl)c2)CCNCC1
IC50 [1]: > 0.04 µM

SMILES: O=C(N1CCN(c2ncnc3[nH]cc(Br)c23)CC1)C1(c2ccccc2)CCNCC1
IC50 [1]: 0.0203 µM

SMILES: O=C(N1CCN(c2ncnc3[nH]cc(Br)c23)CC1)C1(c2ccc(Cl)c(Cl)c2)CCNCC1
IC50 [1]: 0.0043 µM

SMILES: O=C(N1CCN(c2ncnc3[nH]cc(Cl)c23)CC1)C1(c2ccc(Cl)cc2)CCNCC1
IC50 [1]: 0.0019 µM

SMILES: O=C(N1CCN(c2ncnc3[nH]cc(Br)c23)CC1)C1(c2cccc(Br)c2)CCNCC1
IC50 [1]: 0.0076 µM

SMILES: O=C(N1CCN(c2ncnc3[nH]ccc23)CC1)C1(c2ccc(Cl)cc2)CCNCC1
IC50 [1]: 0.0265 µM

SMILES: O=C(N1CCN(c2ncnc3[nH]cc(Cl)c23)CC1)C1(c2ccc(Br)cc2)CCNCC1
viability at 1 µM (JeKo-1 [5]): 35.6% | IC50 [1]: 0.0018 µM | IC50 (JVM-2): 0.7 µM | IC50 (Maver1): 0.3 µM | IC50 [2]: 1.5 µM | IC50 (Z-138): 0.2 µM | IC50 [3]: 0.7 µM | IC50 (JeKo-1 [4]): 0.3 µM | viability at 0.5 µM (JeKo-1 [6]): 75.6% | Activity (JeKo-1 [7]): 15.4% | Activity (JeKo-1 [8]): 8.31% | Activity (JeKo-1 [9]): 0.7% | viability at 1 µM (JeKo-1 [10]): 49.1% | Activity (JeKo-1 [11]): 34% | Activity (JeKo-1 [12]): 16.6% | Activity (JeKo-1 [13]): 0.21% | viability at 5 µM (JeKo-1 [14]): 6.4% | Activity (JeKo-1 [15]): 70.1% | Activity (JeKo-1 [16]): 23% | Activity (JeKo-1 [17]): 0.43% | viability at 1 µM (JeKo-1 [18]): 69.7% | Activity (JeKo-1 [19]): 9.81% | Activity (JeKo-1 [20]): 20.4% | Activity (JeKo-1 [21]): 0.091% | viability at 1 µM (JeKo-1 [22]): 49.1% | Activity (JeKo-1 [23]): 34% | Activity (JeKo-1 [24]): 16.6% | Activity (JeKo-1 [25]): 0.21% | Activity (JeKo-1 [26]): 53.5% | Activity (JeKo-1 [27]): 10.7% | Activity (JeKo-1 [28]): 0.26% | Activity (JeKo-1 [29]): 46.1% | Activity (JeKo-1 [30]): 21.2% | Activity (JeKo-1 [31]): 32.7% | Activity (JeKo-1 [32]): 8.8% | Activity (JeKo-1 [33]): 18.8% | Activity (JeKo-1 [34]): 72.4%

SMILES: O=C(N1CCN(c2ncnc3[nH]cc(Cl)c23)CC1)C1(c2cccc(Br)c2)CCNCC1
IC50 [1]: 0.0056 µM

SMILES: COc1ccc(C2(C(=O)N3CCN(c4ncnc5[nH]cc(Br)c45)CC3)CCNCC2)cc1
IC50 [1]: 0.0141 µM

SMILES: O=C(N1CCN(c2ncnc3[nH]cc(Br)c23)CC1)C1(c2ccc(Cl)cc2)CCNCC1
IC50 [1]: 0.0015 µM | IC50 (JVM-2): 2.3 µM | IC50 (Maver1): 1.8 µM | IC50 [2]: 4.7 µM | IC50 (Z-138): 1.7 µM | IC50 [3]: 3.5 µM | IC50 (JeKo-1 [4]): 1.2 µM

SMILES: O=C(N1CCN(c2ncnc3[nH]cc(Cl)c23)CC1)C1(c2ccc(Cl)c(Cl)c2)CCNCC1
IC50 [1]: 0.0029 µM
